In patent US20250339569A1, “CARBONIC ANHYDRASE IX LIGANDS” (priority 2021, published 2025):
Read-outs that look alike come from different tables or passages of the source.

Tests used:
dog CAIX = experiment: Radioligand binding assay, 111In-labeled compounds, CHO-VGT cells with dog CAIX; conditions: 111In-labeled compound, 8 h at 37°C
Experimental: (§1) In order to assess the affinity of ^111In-labeled compounds to CAIX of different species, a radioligand binding assay was established.
(§2) CHO-VGT cells were transfected with the human, dog, and mouse CAIX (InSCREENex GmbH) and cultured in Ham's F-12 medium (Sigma-Aldrich #N4888) supplemented with 10% fetal bovine serum (FCS), 2 mM L-glutamine, 100 U/mL Penicillin, and 0.1 mg/mL streptomycin. Cells were detached with Accutase (Biolegend #423201) and counted using a particle counter (CASY Model TT; Scharfe Systems, Germany). Cell concentrations were adjusted to 3×10^5 mL^−1, and 1.000 μL of the suspension per well were dispensed into flat-clear-bottom 24 well plates.
(§3) Approximately 24 hours after re-seeding, the medium was aspirated and the cells were washed once with 1000 μL assay medium (Ham's medium without additives). To determine total binding, 700 μL of assay medium and 100 μL of the radioligand dilutions were added to the wells in triplicates. To determine non-specific binding, 600 μL of binding medium, 100 μL of the radioligand dilutions and 100 μL of a blocking solution containing 8 μM non-labeled compound were added to the wells in triplicates. At the end of incubation time (8 h at 37° C.), cells were washed and subsequently harvested in 300 μL RIPA buffer (Thermo Scientific #89901) containing Protease Inhibitor Cocktail Set I (Calbiochem #539131). Radioactivity of the cell lysate of each well was counted using a gamma counter (1470 Wizard, PerkinElmer, USA). An aliquot of each radioligand dilution was included in the gamma counter measurements to allow for determination of their actual concentrations via their known specific activity.

CAXIV (hCAXIV-bio) = biological target: T1, CAXIV (hCAXIV-bio) (Homo sapiens, UniProt Q9ULX7); experiment: SPR selectivity assay with biotinylated CAXIV; format: binding
T1 construct: purchased SinoBliological (Sino Biological) 10458-H08H
Experimental: (§4) In order to test selectivity of CAIX-binding peptides toward CAIV (SinoBliological, Cat #10472-1H081H), CAXII (SinoBliological, Cat #10617-H08H or CAXIV (SinoBliological, Cat #10458-H08H), SPR assays were performed analog to the assay described above but with a different target capture procedure. For immobilization, the carbonic anhydrases were biotinylated and capture on the SPR chip using the Biotin CAPture Kit (cytiva) according to the manufacturer instructions using HBSTE, 0.1% as Running Buffer.
(§5) Table 13 describes the protocol steps for biotinylated target capturing and assessment of the binding kinetics.

mouse CAIX = biological target: T2, mouse CAIX (Mus musculus, UniProt Q8VHB5); experiment: Radioligand binding assay, 111In-labeled compounds, CHO-VGT cells with mouse CAIX
T2 construct: host or cells: CHO-VGT / CHO cells
Experimental: as §1, §2, §3

CAIV (hCAIV-bio) = biological target: T3, CAIV (hCAIV-bio) (Homo sapiens, UniProt P22748); experiment: SPR selectivity assay with biotinylated CAIV; format: binding
T3 construct: purchased SinoBliological (Sino Biological) 10472-1H081H
Experimental: as §4, §5

[1] = biological target: T4, CAIX-expressing human HT-29 colorectal cancer cells (Homo sapiens, UniProt Q16790); experiment: FACS binding assay (IC50 determination, competition with tracer 3BP-2776 or 3BP-4149)
T4 construct: CAIX-expressing human HT-29 colorectal cancer cells; host or cells: HT-29 human colorectal cancer cells
Outline: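 HT-29 cells in FACS buffer (PBS, 1% FCS) at 500.000 cells/ml were exposed to compounds competing with a labelled tracer, with biotinylated compounds detected by 1 μg/mL APC-streptavidin for 30 min on ice. APC/Cy5 median fluorescence was read by flow cytometry and IC50 derived by 4PL fit.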

CAXII (hCAXII-bio) = biological target: T5, CAXII (hCAXII-bio) (Homo sapiens, UniProt O43570); experiment: SPR selectivity assay with biotinylated CAXII; format: binding
T5 construct: purchased SinoBliological (Sino Biological) 10617-H08H
Experimental: as §4, §5

human CAIX = human CAIX (Homo sapiens, UniProt Q16790); experiment: Radioligand binding assay, 111In-labeled compounds, CHO-VGT cells with human CAIX; design: host or cells: CHO-VGT / CHO cells
Experimental: as §1, §2, §3

[2] = biological target: T6, human carbonic anhydrase IX (hCAIX-Fc) (Homo sapiens, UniProt Q16790); experiment: Surface plasmon resonance assay with hCAIX-Fc; format: binding; conditions: for t1/2 category (activity): SPR dissociation half-life, hCAIX-Fc; for t1/2 category (activity) / Kd: 25° C.; for pKD category (affinity) CAIX / Kd: SPR; for pKD category (affinity) CAIX: hCAIX; for Kd: hCAIX-Fc captured, read-out: pKD category (activity) (converted)
T6 construct: purchased SinoBliological (Sino Biological) 10107-H02H

[3] = Biodistribution study (SPECT/CT) in HT-29 tumor-bearing mice; format: in vivo, NMRI nude mice; conditions: female, NMRI nude, mouse, in vivo, iv, total radioactivity
Experimental: (§6) The effect on tumor uptake of prior injection of gelofusine for kidney protection was investigated in mice bearing the SK-RC-52 tumor. Biodistribution was evaluated using in vivo SPECT/CT imaging. Prior to the in vivo study the compounds (ligands) were initially radiolabeled with In-111 and the stability of radiolabeled compounds was evaluated in buffer at three different timepoints.
(§7) The study was performed in female NMRI nude mice (approximately 6 weeks of age) from Janvier Labs, France, housed up to 5 mice per cage.
(§8) The column was washed with 2 mL water, and then the final product was eluted from the column in EtOH solution (50%) • The sample was formulated in PBS to the final concentration of 150 MBq/mL and 5 nmol/mL.
(§9) SK-RC-52 cells were cultured in RPMI 1640 with GlutaMax-I (Thermo Fisher Scientific #61870044) supplemented with 10% fetal bovine serum+1% penicillin/streptomycin, harvested, washed twice in RPMI 1640 and resuspended at 2×10^7 cells/mL in RPMI 1640. HT-29 cells were cultured in McCoy's 5a Medium Modified (Sigma #M9309). For inoculation of HT-29 cells, cells were harvested, washed twice in PBS and resuspended at 5×10^7 cells/mL in PBS. Cells were kept on ice until inoculation.
(§10) Animals were anaesthetized (isoflurane, 2-4% in ambient air supplemented with 100% 02) prior to tumor inoculation. The tumor cells (100 μL suspension of either SK-RC-52 cells (2×10^6 cells/animal) or HT-29 cells (5×10^6 cells/animal)) were subcutaneously inoculated in the right flank using a 1-mL syringe equipped with a 27 G needle. Tumor growth and animal weight were measured twice per week. Tumor size was measured by caliper and the volume was estimated using the following formula: 0.52×(length×width^2). When tumor sizes reached 150-250 mm^3, animals were randomized into groups (n=3) of similar average tumor volume and body weight.
(§11) Animals were injected intravenously with In-111-labeled compounds (single bolus, 22.3-31.2 MBq, ˜1 nmol ligand, injection volume: 100 μL) in the lateral tail vein using a 29 G syringe.
(§12) CT was performed with helical scan, 300 ms exposure, reconstruction resolution of 250 μm. SPECT was performed with multi-pinhole scan and a 30 s frame time. For the quantification of the radioactivity uptake, regions of interests (ROIs) were drawn over the tumor, kidney, liver, and heart (estimate of blood) identified on the images. Uptake was expressed as percent of injected dose per gram tissue (% ID/g).

HT-29 tumor = experiment: as above; format: in vivo, NMRI nude mice; conditions: mouse, in vivo
Experimental: as §6, §7, §8, §9, §10, §11, §12

[4] = Biodistribution study (SPECT/CT) in SK-RC-52 tumor-bearing mice with or without gelofusine; format: in vivo, NMRI nude mice; conditions: female, NMRI nude, mouse, in vivo, iv, total radioactivity
Experimental: as §6, §7, §8, §9, §10, §11, §12

SK-RC-52 tumor = experiment: as above; format: in vivo, NMRI nude mice; conditions: mouse, in vivo
Experimental: as §6, §7, §8, §9, §10, §11, §12

[5] = Tumor/Blood uptake ratio at 4 h p.i.
[6] = Tumor/Liver uptake ratio at 4 h p.i.

T2 sequence (Q8VHB5 32-437): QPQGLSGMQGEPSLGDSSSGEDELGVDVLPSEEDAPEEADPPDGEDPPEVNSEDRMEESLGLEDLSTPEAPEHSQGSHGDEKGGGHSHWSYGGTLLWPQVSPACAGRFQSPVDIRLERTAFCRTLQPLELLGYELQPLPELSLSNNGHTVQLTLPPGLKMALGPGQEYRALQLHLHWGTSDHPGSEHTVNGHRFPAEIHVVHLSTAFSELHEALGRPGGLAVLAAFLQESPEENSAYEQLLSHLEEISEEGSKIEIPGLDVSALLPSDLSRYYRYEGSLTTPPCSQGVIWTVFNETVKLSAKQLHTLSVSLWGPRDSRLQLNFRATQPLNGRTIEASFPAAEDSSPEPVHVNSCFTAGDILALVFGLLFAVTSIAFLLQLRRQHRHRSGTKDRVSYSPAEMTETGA
T1 sequence (Q9ULX7 16-337): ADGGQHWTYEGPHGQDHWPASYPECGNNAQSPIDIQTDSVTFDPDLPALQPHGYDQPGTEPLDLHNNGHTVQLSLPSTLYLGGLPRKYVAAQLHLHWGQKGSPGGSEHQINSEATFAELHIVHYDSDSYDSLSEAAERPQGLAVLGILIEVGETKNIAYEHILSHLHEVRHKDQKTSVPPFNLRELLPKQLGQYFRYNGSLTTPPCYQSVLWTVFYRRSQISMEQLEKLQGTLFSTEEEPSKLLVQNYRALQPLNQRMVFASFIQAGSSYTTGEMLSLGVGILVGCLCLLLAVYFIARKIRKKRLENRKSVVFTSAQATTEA
T3 sequence (P22748 19-284): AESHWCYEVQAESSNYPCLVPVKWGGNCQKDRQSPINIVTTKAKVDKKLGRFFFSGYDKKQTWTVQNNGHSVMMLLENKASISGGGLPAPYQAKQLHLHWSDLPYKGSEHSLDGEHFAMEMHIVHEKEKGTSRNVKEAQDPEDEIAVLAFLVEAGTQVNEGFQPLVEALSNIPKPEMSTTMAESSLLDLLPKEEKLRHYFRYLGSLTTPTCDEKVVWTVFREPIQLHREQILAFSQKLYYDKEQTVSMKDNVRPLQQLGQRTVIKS
T5 sequence (O43570 25-354): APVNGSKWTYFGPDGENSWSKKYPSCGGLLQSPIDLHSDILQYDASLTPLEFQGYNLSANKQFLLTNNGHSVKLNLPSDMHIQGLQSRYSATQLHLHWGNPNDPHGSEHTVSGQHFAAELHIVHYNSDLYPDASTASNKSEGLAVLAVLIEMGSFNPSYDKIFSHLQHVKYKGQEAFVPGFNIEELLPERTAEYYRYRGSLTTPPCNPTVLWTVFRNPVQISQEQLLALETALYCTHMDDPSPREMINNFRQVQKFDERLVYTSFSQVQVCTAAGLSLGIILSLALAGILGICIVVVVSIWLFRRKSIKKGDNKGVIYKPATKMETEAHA

CC(C)C[C@@H]1NC(=O)[C@H](Cc2cccc(NC(=O)CCCS(N)(=O)=O)c2)NC(=O)[C@H](CC(=O)O)NC(=O)[C@H]2CCCN2C(=O)[C@H](CCC(=O)O)NC(=O)[C@@H](NC(=O)[C@H](CCC(N)=O)NC(=O)CN2CCN(C(=O)CN3CCN(CC(=O)O)CCN(CC(=O)O)CCN(CC(=O)O)CC3)CC2)CSCc2cccc(c2)CSC[C@@H](C(N)=O)NC(=O)[C@H](CO)NC(=O)[C@H](Cc2c[nH]c3ccccc23)NC(=O)[C@H]([C@@H](C)O)NC1=O [3BP-4452, DOTA-PPAc-Gln-[Cys(3MeBn)-Glu-pro-Asp-Af3(Cpsu)-Leu-Thr-Trp-Ser-Cys]-NH2]
pKD category (activity) (dog CAIX): A (pKD values >8.0)
Kd (CAXIV (hCAXIV-bio)): > 1000 nM
Kd (mouse CAIX): 10 to 79.4 nM
Kd (CAIV (hCAIV-bio)): > 1000 nM
IC50 [1]: < 10 nM
Kd (CAXII (hCAXII-bio)): > 1000 nM
Kd (human CAIX): < 10 nM
t1/2 category (activity) [2]: A (t1/2>15.0 minutes)
pKD category (affinity) CAIX [2]: A (pKD values >8.0)
Kd [2]: < 10 nM

CC(C)C[C@@H]1NC(=O)[C@H](Cc2ccc(NC(=O)CCS(N)(=O)=O)cc2)NC(=O)[C@H](CC(=O)O)NC(=O)[C@H]2CCCN2C(=O)[C@H](CCC(=O)O)NC(=O)[C@@H](NC(=O)[C@H](CCC(N)=O)NC(=O)CN2CCN(CC(=O)O)CCN(CC(=O)O)CCN(CC(=O)O)CC2)CSCc2cccc(c2)CSC[C@@H](C(N)=O)NC(=O)[C@H](CO)NC(=O)[C@H](Cc2c[nH]c3ccccc23)NC(=O)[C@H]([C@@H](C)O)NC1=O [3BP-4501, DOTA-Gln-[Cys(3MeBn)-Glu-pro-Asp-Aph(SaPr)-Leu-Thr-Trp-Ser-Cys]-NH2]
pKD category (activity) (dog CAIX): A (pKD values >8.0)
Kd (CAXIV (hCAXIV-bio); SPR, biotinylated CAXIV, read-out: pKD category (affinity) CAXIV (converted)): > 1000 nM
Kd (mouse CAIX; 111In-labeled compound, Mouse CAIX, 8 h at 37°C, read-out: pKD category (activity) (converted)): 10 to 79.4 nM
Kd (CAIV (hCAIV-bio); SPR, biotinylated CAIV, read-out: pKD category (affinity) CAIV (converted)): > 1000 nM
IC50 ([1]; FACS binding assay, HT-29 cells, competition with tracer 3BP-2776 (10 nM, biotin-labeled), 4° C., 1 hour, read-out: pIC50 category (activity) (converted)): < 10 nM
Kd (CAXII (hCAXII-bio); SPR, biotinylated CAXII, read-out: pKD category (affinity) CAXII (converted)): > 1000 nM
Kd (human CAIX; 111In-labeled compound, Human CAIX, 8 h at 37°C, read-out: pKD category (activity) (converted)): < 10 nM
t1/2 category (activity) [2]: A (t1/2>15.0 minutes)
pKD category (affinity) CAIX [2]: A (pKD values >8.0)
Kd [2]: < 10 nM

CC(C)C[C@@H]1NC(=O)[C@H](Cc2ccc(NC(=O)CCS(N)(=O)=O)cc2)NC(=O)[C@H](CC(=O)O)NC(=O)[C@H]2CCCN2C(=O)[C@H](CCC(=O)O)NC(=O)[C@@H](NC(=O)[C@H](CCC(N)=O)NC(=O)CN2CCN(CC(=O)O)CCN(CC(=O)O)CCN(CC(=O)O)CC2)CSCc2cccc(c2)CSC[C@@H](C(N)=O)NC(=O)[C@H](CO)NC(=O)[C@H](Cc2c[nH]c3ccccc23)NC(=O)[C@H]([C@@H](C)O)NC1=O [DPI-4501, DOTA-Gln-[Cys(3MeBn)-Glu-pro-Asp-Aph(SaPr)-Leu-Thr-Trp-Ser-Cys]-NH2]
tissue uptake at 4 h ([3]; Blood uptake at 4 h p.i.): 0.04 ± 0.005 %ID/g
tissue uptake at 24 h ([3]; Kidney uptake at 24 h p.i.): 2.16 ± 0.36 %ID/g
tissue uptake at 4 h ([3]; Liver uptake at 4 h p.i.): 0.12 ± 0.01 %ID/g
tissue uptake ([3]; Peak Kidney uptake): 5.61 ± 0.57 %ID/g
tissue uptake ([3]; Peak Tumor Uptake): 3.81 ± 0.26 %ID/g
tissue to tissue ratio at 4 h [3, 5]: 104 ± 10.2
tissue to tissue ratio at 4 h [3, 6]: 29.8 ± 2.5
tissue to tissue ratio at 24 h ([3]; Tumor/kidney uptake ratio at 24 h p.i.): 1.5 ± 0.1
Time to peak uptake in tumor (HT-29 tumor): 2 h
% remaining tumor uptake at 24 h p.i. (HT-29 tumor; 24 h): 80 ± 4.4%
tissue uptake at 4 h ([4]; Blood uptake at 4 h p.i.): 0.05 ± 0.01 %ID/g
tissue uptake at 4 h ([4]; Liver uptake at 4 h p.i.): 0.08 ± 0.01 %ID/g
tissue uptake ([4]; Peak Tumor Uptake): 7.17 ± 1.92 %ID/g
tissue to tissue ratio at 4 h [4, 5]: 128 ± 20.3
tissue to tissue ratio at 4 h [4, 6]: 70.2 ± 17
Peak Tumor Uptake (SK-RC-52 tumor; female, NMRI nude, iv): 6.01 ± 0.39 % ID/g
Blood uptake at 4 h p.i. (SK-RC-52 tumor; female, NMRI nude, iv, 4 h): 0.03 ± 0.003 % ID/g
Liver uptake at 4 h p.i. (SK-RC-52 tumor; female, NMRI nude, iv, 4 h): 0.07 ± 0.01 % ID/g
Tumor/Blood uptake ratio at 4 h p.i. (SK-RC-52 tumor; female, NMRI nude, iv, 4 h): 178.6 ± 39.3
Tumor/Liver uptake ratio at 4 h p.i. (SK-RC-52 tumor; female, NMRI nude, iv, 4 h): 81.4 ± 14.0
Time to peak uptake in tumor (SK-RC-52 tumor): 1 h
